Source: article PMC11040934, “PI3Kγδ inhibition suppresses key disease features in a rat model of asthma” (Respiratory Research, 2024)
Like-named read-outs stand apart in the source and are kept apart here.

Columns and labels:
[1] = Rat plasma protein binding, blood to plasma ratio, unbound fraction in whole blood; format: in vitro ADME; settings: for fraction unbound: rat
Procedure: Next, cells were stained with Fc block (550,273, BD bioscience, 1:100; 20 mins, RT), CD45R-B220-PeCy7 (HIS24) (25–0460-82, eBioscience, 1:100), CD43-PE (W3/13) (202,812, Biolegend, 1:100), HIS48-FITC (11–0570-82, eBioscience, 1:100), CD11b-APC (562,102, BD Bioscience, 1:100). Cells were lysed and fixed with BD FACS lysing solution (349,202, BD Biosciences; 45 mins, RT) before FACS acquisition (BD LSRFortessa™). Data were analysed using FlowJo 9.9 software (TreeStar). FACS gating strategy: lymphocytes (FSC-A vs SSC-A), doublets exclusion (FSC-W vs FSC-H), neutrophil identification B220-, HIS48hi, CD43hi, SSC-Ahi, geom. MFI for CD11b on neutrophils. IC50 values were determined in Graph Pad through a nonlinear fit on log transform data: log inhibitor vs response, variable slope, 4 parameters. Fraction unbound in diluted whole blood is calculated using the following equation: fu^′=DF·fub/1+DF-1·fub where fu’ is the fraction unbound in diluted whole blood; fub is the fraction unbound in undiluted whole blood; DF is the dilution factor. Fraction unbound in 100% whole blood (fub) is calculated as fup/BP, where fup is the experimentally determined fraction unbound in undiluted plasma and BP is the experimentally determined blood to plasma partition ratio of drug Table 1.

PI3K pathway (pAkt) = assay: Rat model of allergic asthma: lung tissue pAkt (T308), target engagement; format: in vivo, Brown Norway rat; settings: i.t. 1 hr before OVA challenge; AZD8154 0.02, 0.1, 0.3 mg/kg, budesonide 3 mg/kg; lung 2 hrs after challenge
Procedure: (§1) Male, adult, Brown Norway rats were obtained from Charles River Germany at a body weight range of 250-300 g. Animals were housed in temperature controlled individually ventilated cages in groups of 4 with food and water provided ad libitum. Animals underwent acclimatisation for at least 1 week prior to experimentation. Experiments were performed in accordance with the UK Home Office guidelines for animal welfare based on the Animals (Scientific Procedures) Act of 1986 and the ARRIVE guidelines (Fig. E2).
Initially a time course study was performed, followed by a characterisation study with compound & clinical comparator. […]
5 μL of supernatant (1:50 dilution) was taken for Bradford Assay which was run according to manufacturers’ instructions (BioRad, USA). […] Absorbance was measured using a spectrophotometer and total protein values interpolated to standard curve (595 nm; Spectromax, UK).
10 μg of protein from lung tissue extract were utilized in pAkt (T308); pSTAT3, pSTAT4 & STAT5a, b (Phospho-STAT Panel kit) MSD Assay plates (Meso Scale Delivery, USA) and run according to manufacturers’ instructions. Arbitrary electrochemiluminescence signals were read, the blank subtracted and values determined in each plate using a MSD S-Plex plate reader (Meso Scale Delivery, USA).

[2] = system: JAK/STAT and NF-κB pathways; assay: Rat model of allergic asthma: lung pSTAT3, pSTAT5a,b and NF-κB p65, pathway specificity; format: in vivo, Brown Norway rat; settings: i.t. 1 hr before OVA challenge; lung 2 hrs after challenge
Procedure: 10 μg of protein from lung tissue extract were utilized in pAkt (T308); pSTAT3, pSTAT4 & STAT5a, b (Phospho-STAT Panel kit) MSD Assay plates (Meso Scale Delivery, USA) and run according to manufacturers’ instructions. Arbitrary electrochemiluminescence signals were read, the blank subtracted and values determined in each plate using a MSD S-Plex plate reader (Meso Scale Delivery, USA). […]
10 μg (5 μL) of nuclear tissue extract were utilized in NF-κB p65 TransAm Activation Assays (Active Motif, USA) and run according to manufacturer’s instructions. Optical density was determined utilizing a spectrophotometer, the blank was subtracted, and values determined (450 nm; Spectromax, UK).

[3] = system: Brown Norway rats, OVA sensitised and challenged; assay: Rat model of allergic asthma: late asthmatic response (Penh, whole body plethysmography); format: in vivo, Brown Norway rat; settings: 1-6 hrs after OVA challenge; i.t. dosing
Procedure: as §1
Initially a time course study was performed, followed by a characterisation study with compound & clinical comparator. For both studies, rats were sensitised on day 0, 14 and 21 by an intraperitoneal (i.p.) injection of 4 mL/kg (1 mL/rat) of ovalbumin (OVA;100 μg/rat) in Imject™ Alum (20 mg/rat aluminium hydroxide and 20 mg/rat magnesium hydroxide) or sham sensitised (Saline [Sal] in Imject™ Alum). […]
In both studies, 30 mins post-challenge, rats were placed unrestrained in Perspex plethysmographs connected to bias flow pumps (DSI Europe Ltd), with food and water ad libitum. 55 mins post-challenge, a five mins baseline recording was taken and the average penh and area under the curve (AUC) was recorded at 10 mins intervals for a total duration of 5 hrs and was used for analysis (DSI Europe Ltd).

[4] = Lung tissue and plasma levels after intratracheal dosing (LC-MS/MS); format: in vivo
Procedure: Initially a time course study was performed, followed by a characterisation study with compound & clinical comparator. For both studies, rats were sensitised on day 0, 14 and 21 by an intraperitoneal (i.p.) injection of 4 mL/kg (1 mL/rat) of ovalbumin (OVA;100 μg/rat) in Imject™ Alum (20 mg/rat aluminium hydroxide and 20 mg/rat magnesium hydroxide) or sham sensitised (Saline [Sal] in Imject™ Alum). On day 28 rats were challenged with 1% (w/v) aerosolised OVA in isotonic saline, or sham challenged with isotonic saline (30 mins).
For the time course study, animals were terminally anaesthetized, via overdose i.p. with sodium pentobarbitone (200 mg/kg), 1–24 hrs post antigen challenge. For the compound study, animals were terminally anaesthetised, via overdose i.p. with sodium pentobarbitone (200 mg/kg), 2 or 24 hrs post antigen challenge. […]
50 μL plasma was protein precipitated by addition of 180 μL acetonitrile containing 0.2% formic acid & 50 nM internal standard. […] Plasma concentrations of AZD8154 were determined by liquid chromatography with tandem mass spectrometric detection (LC-MS/MS).
Lung pieces were weighed and homogenised in a 1 mL ringer solution using bead-beating technology (Bertin Technologies, Montigny le Bretonneux, France). […] Lung concentrations of AZD8154 were determined by LC-MS/MS. […]

With `Cc1nc(Nc2cccc(N3CCCC3=O)n2)sc1-c1cc2c(c(S(C)(=O)=O)c1)C(=O)N([C@@H](C)C1CC1)C2` [AZD8154] the “Rat B/P ratio” value ([1]; blood to plasma partition ratio) was 0.82, the Rat fub ([1]; fraction unbound in 100% whole blood, fup/BP) was 0.018 and the fraction unbound ([1]; diluted whole blood (PI3K γ assay), fraction unbound in diluted whole blood, DF 1.05 (γ assay), read-out: fu’) was 0.0192. The fraction unbound ([1]; plasma, rat plasma, fraction unbound, read-out: Rat ppb (fu, %)) was 0.015, the fraction unbound ([1]; plasma, undiluted rat plasma, fraction, read-out: Rat plasma fu) was 0.015 and the “lung tissue pAkt levels” value (PI3K pathway (pAkt)) was “dose related suppression”. The “JAK/STAT pathway (pSTAT3, pSTAT5a,b) in lung tissue” value [2] was “minimal impact”, the “NF-κB pathway (NF-κB p65) in lung nuclear extract” value [2] was “minimal impact” and the “LAR (Penh, AUC)” value [3] was “statistically significant dose-dependent decrease”. For the same compound, the “Mean concentration in lung tissue and plasma versus dose” value ([4]; i.t. 0.02, 0.1, 0.3 mg/kg, 2 & 24 hrs post-challenge) was “increased with increasing dose” and the “level in lung tissue compared to plasma” value ([4]; i.t., up to 24 hrs post-dosing) was “significantly higher in the lung tissue”.
